According to article PMC8451604, “Rational formulation engineering of fraxinellone utilizing 6-O-α-D-maltosyl-β-cyclodextrin for enhanced oral bioavailability and hepatic fibrosis therapy” (Drug Delivery, 2021):
≈ marks a conversion by molar mass, not a printed value.

How the values were obtained:
[1] = Octanol/water partition coefficient (Log P) measurement; type: physicochemical; details: octanol/PBS (mutually saturated, equal volumes); pH 1.2, 4.5 and 6.8, 37 °C
Description: The mixtures were placed in an air bath shaking at 100 rpm at 37 °C for 24 h. The samples were then centrifuged (12,000 rpm, 10 min) for oil/water phase separation. The drug concentration in these two phases was analyzed by HPLC, respectively.

[2] = Solubility of Frax in various solubilizers (50% solution); type: physicochemical; details: 37 °C
Description: Excess Frax was added into Solutol HS 15, Tween 80, PEG 400, Transcutol P, β-CD, SBE-β-CD, HP-β-CD, and G2-β-CD solution (50%), respectively. The samples were vortexed followed by incubation in a shaker (120 rpm, 37 °C) for 72 h. After the process, the samples were centrifuged to separate the supernatant containing dissolved Frax. After suitable dilution and filtration, Frax concentration in the supernatant was analyzed by the HPLC method.

[3] = Phase solubility study of Frax with CDs; type: physicochemical; details: 37 °C; for solubility at 72 h: aqueous with cosolvent or surfactant or cyclodextrin, thermodynamic from solid; for Frax solubility increase: vs water
Description: Frax was excessively mixed with increasing molar concentrations (0–350.00 mM) of each CD aqueous solution. […] The samples were subjected to HPLC analysis after centrifugation (4024.8 g, 10 min). Phase solubility profiles were plotted by monitoring Frax concentration as a function of the molar concentration of each CD. Based on the phase solubility curves, we calculated the apparent stability constants (Kc, L/mol) according to Equation (1): (1) Kc=Slope/S0(1−Slope) where S0 is the water solubility of Frax at equilibrium.

[4] = Oral bioavailability / pharmacokinetic study; parameters: species or system Male Wistar rats; details: male, Wistar, rat, in vivo
Description: Pharmacokinetic studies were conducted in Male Wistar rats (180–220 g) supplied by the Center of laboratory animals, Zhengzhou University. The Use Committee of Zhengzhou University (IRB0000861) approved the experimental protocol. In addition, all animal experiments were conducted according to the Guidelines of Animal Experimentation of the Laboratory Animal Center. Rats were acclimatized before experiments and provided free access to food and water.
Rats divided into five groups at random (n = 5) were dosed with the following formulations: intravenous administration of Frax ([…]) or orally given Frax suspension (150 mg/kg) or SBE-β-CD-Frax, HP-β-CD-Frax, and G2-β-CD-Frax (150 mg/kg), respectively. Blood (0.4 mL) was obtained by orbital sinus collection at 0.17, 0.25, 0.75, 1, 1.5, 2, 4, 6, 8, and 10 h post-administration. To determine Frax concentration in plasma, 200 μL methanol, 100 μL acetonitrile, and 20 μL 5% hydrochloric acid were added to rat plasma (100 μL) gradually. Following vortexing and centrifugation (4024.8 g, 10 min), the supernatant was collected, dried by air blowing at room temperature, and reconstituted with 150 μL of the mobile phase. The samples were sonicated and vortexed until homogeneity. After centrifugation, the supernatant (50 μL) was aspirated and injected into HPLC. The standard curve encompassed a linear range of 0.05–10 μg/mL and was used to calculate Frax concentration in plasma. Pharmacokinetic parameters were calculated using DAS software version 3.0 and reported as mean ± standard deviation. The oral absolute and relative bioavailability (Fa and Fr) were calculated using the following Equations (3) and (4): (3) Fa(%)=AUC^testDose^i.v/AUC^i.vDose^test (4) Fr(%)=AUCtest/AUCreference where AUC is the area under the pharmacokinetic curves

[5] = test system: CCl4-induced liver fibrosis mice; experiment: CCl4-induced liver fibrosis, therapeutic efficacy; type: in vivo, Kunming male mice
Description: The Kunming male mice (weight of 28–30 g) were divided into 10 groups (n = 10): normal group, CCl4-induced liver fibrosis group, CCl4 induction treated with Frax or G2-β-CD-Frax treatment groups (5, 10, and 20 mg/kg, respectively), CCl4 induction with colchicine (0.2 mg/kg) treatment group, CCl4 induction with G2-β-CD solution treatment (equivalent to 20 mg/kg of G2-β-CD-Frax) group. The mice in the normal group were treated with olive oil only, while the other groups were intraperitoneally injected with 10% CCl4-olive oil every other week for 10 weeks (5 mL/kg for the first dose and 3 mL/kg for the second starting dose). Drug treatment began on the fourth week of modeling and continued every day for 7 weeks. One day after the last administration, blood in all the groups was immediately harvested for assays of AST and ALT. […] were then sacrificed and livers were collected and divided into two parts for histological examination and Hydroxyproline (HYP) assay, respectively.

[6] = parameters: method as in Ruan et al., 2006; details: ref Ruan et al., 2006; cited from earlier work
[7] = oral 5 mg/kg daily for 7 weeks, vs CCl4 group

With `CC1=C2C(=O)O[C@@H](c3ccoc3)[C@]2(C)CCC1` [Frax, Fraxinellone] the logP at 24 h [1] was 3.2 ± 0.17, the solubility at 72 h ([2]; 50% (w/v) G2-β-CD solution in water) was 12700 µg/mL (≈ 54.8 mM) and the “Frax solubility in G2-β-CD solution relative to water” value ([2]; 50% (w/v) G2-β-CD solution vs water) was 160 times. It also gave a solubility at 72 h ([3]; 8.82 mM G2-β-CD aqueous solution, with 8.82 mM G2-β-CD) of 430 µg/mL (≈ 1.85 mM), a solubility at 72 h ([3]; 8.82 mM HP-β-CD aqueous solution, with 8.82 mM HP-β-CD) of 330 µg/mL (≈ 1.42 mM) and a solubility at 72 h ([3]; 8.82 mM SBE-β-CD aqueous solution, with 8.82 mM SBE-β-CD) of 600 µg/mL (≈ 2.58 mM). The solubility at 72 h ([3]; 8.82 mM β-CD aqueous solution, with 8.82 mM β-CD) was 310 µg/mL (≈ 1.33 mM), the solubility at 72 h ([3]; 350 mM G2-β-CD aqueous solution, with 350 mM G2-β-CD) was 12300 µg/mL (≈ 53 mM) and the solubility at 72 h ([3]; 350 mM HP-β-CD aqueous solution, with 350 mM HP-β-CD) was 6550 µg/mL (≈ 28.2 mM). For the same molecule, the solubility at 72 h ([3]; 350 mM SBE-β-CD aqueous solution, with 350 mM SBE-β-CD) was 13600 µg/mL (≈ 58.4 mM), the Frax solubility increase ([3]; with 8.82 mM G2-β-CD) was 5.45 fold and the Frax solubility increase ([3]; with 8.82 mM HP-β-CD) was 4.18 fold. The Frax solubility increase ([3]; with 8.82 mM SBE-β-CD) was 7.61 fold, the Frax solubility increase ([3]; with 8.82 mM β-CD) was 3.93 fold and the Frax solubility increase ([3]; with 350 mM G2-β-CD) was 156.19 fold. The Frax solubility increase ([3]; with 350 mM HP-β-CD) was 83.04 fold, the Frax solubility increase ([3]; with 350 mM SBE-β-CD) was 171.91 fold and the bioavailability [4] was 0.5%. The AUC(0-inf) ([4]; iv, 10 mg/kg) was 11800 ± 1430 ng·h/mL, the AUC(0-inf) ([4]; po, 150 mg/kg) was 970 ± 230 ng·h/mL and the Cmax ([4]; po, 150 mg/kg) was 490 ± 290 ng/mL. For the same molecule, the Tmax ([4]; po, 150 mg/kg) was 1 ± 0.35 h, the “collagen in liver tissue (Masson, Sirius Red staining)” value [5, 7] was “no obvious inhibition” and the “levels of liver fibrosis markers AST, ALT and HYP” value [5, 7] was “no significant decrease”. For the same molecule, the “effect on liver fibrosis” value ([5]; oral 20 mg/kg daily for 7 weeks) was “rather modest effect” and the intestinal permeability [6] was “good intestinal permeability”.
